Data: PubChem BioAssay AID1963421 (Molecular Pharmacology Branch, DTP, NCI, 2024)

System: 519858-162-T-J1-PDC complex spheroid growth, % test/control
Experiment: Anticancer human tumor 519858-162-T-J1-PDC patient-derived colon adenocarcinoma cell line growth inhibition [Asc]
Conditions: for IC50: curve of first compound; for viability, T/C: stronger effect = lower value; active = viability on the fitted dose curve at most 10% of control; inactive = the rest
Summary of the method: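 Tumor cells were grown as complex spheroids with human endothelial cells (HUVEC) and human mesenchymal stem cells as stroma. Agents were tested alone and in combination, in half-log steps down from the clinical Cmax, or from 10 microM where Cmax was unknown.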
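Also: seven day drug exposure begun three days after spheroid seeding.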
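For viability, T/C in this document: 100% = DMSO vehicle wells and lower values mean less viable spheroid.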

C=C(F)C(=O)N1CCN(c2nc(OCC3CCCN3C)nc3c2CCN(c2cccc4cccc(Cl)c24)C3)CC1CC#N (centres undefined) + CNC(C)C(=O)NC1CN(S(=O)(=O)c2cccc(S(=O)(=O)N3CCC4CCC(C(=O)NC(c5ccccc5)c5ccccc5)N4C(=O)C(NC(=O)C(C)NC)C3)c2)CCC2CCC(C(=O)NC(c3ccccc3)c3ccccc3)N2C1=O
> 10 µM: IC50 (second compound 0.00316 µM) | IC50 (second compound 0.01 µM) | IC50 (second compound 0.0316 µM) | IC50 (second compound 0.1 µM) | IC50 (second compound 0.316 µM) | IC50 (second compound 1 µM)
inactive: viability, T/C (second compound 0.00316 µM, first compound 0.0316 µM) 102% | viability, T/C (second compound 0.00316 µM, first compound 0.1 µM) 86.8% | viability, T/C (second compound 0.00316 µM, first compound 0.316 µM) 102% | viability, T/C (second compound 0.00316 µM, first compound 1 µM) 92.7% | viability, T/C (second compound 0.00316 µM, first compound 3.16 µM) 94.8% | viability, T/C (second compound 0.00316 µM, first compound 10 µM) 113% | viability, T/C (second compound 0.01 µM, first compound 0.0316 µM) 104% | viability, T/C (second compound 0.01 µM, first compound 0.1 µM) 83.7% | viability, T/C (second compound 0.01 µM, first compound 0.316 µM) 91.2% | viability, T/C (second compound 0.01 µM, first compound 1 µM) 82% | viability, T/C (second compound 0.01 µM, first compound 3.16 µM) 96.7% | viability, T/C (second compound 0.01 µM, first compound 10 µM) 108% | viability, T/C (second compound 0.0316 µM, first compound 0.0316 µM) 94.7% | viability, T/C (second compound 0.0316 µM, first compound 0.1 µM) 83.7% | viability, T/C (second compound 0.0316 µM, first compound 0.316 µM) 86.3% | viability, T/C (second compound 0.0316 µM, first compound 1 µM) 93.4% | viability, T/C (second compound 0.0316 µM, first compound 3.16 µM) 95.7% | viability, T/C (second compound 0.0316 µM, first compound 10 µM) 107% | viability, T/C (second compound 0.1 µM, first compound 0.0316 µM) 93.1% | viability, T/C (second compound 0.1 µM, first compound 0.1 µM) 91.2% | viability, T/C (second compound 0.1 µM, first compound 0.316 µM) 93.3% | viability, T/C (second compound 0.1 µM, first compound 1 µM) 89.2% | viability, T/C (second compound 0.1 µM, first compound 3.16 µM) 86.8% | viability, T/C (second compound 0.1 µM, first compound 10 µM) 116% | viability, T/C (second compound 0.316 µM, first compound 0.0316 µM) 88.2% | viability, T/C (second compound 0.316 µM, first compound 0.1 µM) 96.9% | viability, T/C (second compound 0.316 µM, first compound 0.316 µM) 106% | viability, T/C (second compound 0.316 µM, first compound 1 µM) 92.9% | viability, T/C (second compound 0.316 µM, first compound 3.16 µM) 82.2% | viability, T/C (second compound 0.316 µM, first compound 10 µM) 107% | viability, T/C (second compound 1 µM, first compound 0.0316 µM) 93.6% | viability, T/C (second compound 1 µM, first compound 0.1 µM) 101% | viability, T/C (second compound 1 µM, first compound 0.316 µM) 103% | viability, T/C (second compound 1 µM, first compound 1 µM) 92.6% | viability, T/C (second compound 1 µM, first compound 3.16 µM) 91.2% | viability, T/C (second compound 1 µM, first compound 10 µM) 112%

CCN1C(C(=O)NC23CCC(C(=O)O)(CC2)CC3)C(c2cccc(Cl)c2F)C2(C(=O)Nc3cc(Cl)ccc32)C12CCCCC2 (centres undefined) + CNC(C)C(=O)NC1CN(S(=O)(=O)c2cccc(S(=O)(=O)N3CCC4CCC(C(=O)NC(c5ccccc5)c5ccccc5)N4C(=O)C(NC(=O)C(C)NC)C3)c2)CCC2CCC(C(=O)NC(c3ccccc3)c3ccccc3)N2C1=O
inactive: viability, T/C (second compound 0.00316 µM, first compound 0.00949 µM) 92% | viability, T/C (second compound 0.00316 µM, first compound 0.03 µM) 118% | viability, T/C (second compound 0.00316 µM, first compound 0.0949 µM) 111% | viability, T/C (second compound 0.00316 µM, first compound 0.3 µM) 83.8% | viability, T/C (second compound 0.00316 µM, first compound 0.949 µM) 108% | viability, T/C (second compound 0.00316 µM, first compound 3 µM) 65.8% | viability, T/C (second compound 0.01 µM, first compound 0.00949 µM) 101% | viability, T/C (second compound 0.01 µM, first compound 0.03 µM) 106% | viability, T/C (second compound 0.01 µM, first compound 0.0949 µM) 112% | viability, T/C (second compound 0.01 µM, first compound 0.3 µM) 80.1% | viability, T/C (second compound 0.01 µM, first compound 0.949 µM) 89.2% | viability, T/C (second compound 0.01 µM, first compound 3 µM) 82.6% | viability, T/C (second compound 0.0316 µM, first compound 0.00949 µM) 96.4% | viability, T/C (second compound 0.0316 µM, first compound 0.03 µM) 73.9% | viability, T/C (second compound 0.0316 µM, first compound 0.0949 µM) 122% | viability, T/C (second compound 0.0316 µM, first compound 0.3 µM) 94% | viability, T/C (second compound 0.0316 µM, first compound 0.949 µM) 83.5% | viability, T/C (second compound 0.0316 µM, first compound 3 µM) 82.1% | viability, T/C (second compound 0.1 µM, first compound 0.00949 µM) 94.7% | viability, T/C (second compound 0.1 µM, first compound 0.03 µM) 73.8% | viability, T/C (second compound 0.1 µM, first compound 0.0949 µM) 82.1% | viability, T/C (second compound 0.1 µM, first compound 0.3 µM) 93.2% | viability, T/C (second compound 0.1 µM, first compound 0.949 µM) 80.1% | viability, T/C (second compound 0.1 µM, first compound 3 µM) 89.6% | viability, T/C (second compound 0.316 µM, first compound 0.00949 µM) 96% | viability, T/C (second compound 0.316 µM, first compound 0.03 µM) 115% | viability, T/C (second compound 0.316 µM, first compound 0.0949 µM) 92.8% | viability, T/C (second compound 0.316 µM, first compound 0.3 µM) 79.6% | viability, T/C (second compound 0.316 µM, first compound 0.949 µM) 81.3% | viability, T/C (second compound 0.316 µM, first compound 3 µM) 105% | viability, T/C (second compound 1 µM, first compound 0.00949 µM) 78.9% | viability, T/C (second compound 1 µM, first compound 0.03 µM) 84.7% | viability, T/C (second compound 1 µM, first compound 0.0949 µM) 66.1% | viability, T/C (second compound 1 µM, first compound 0.3 µM) 112% | viability, T/C (second compound 1 µM, first compound 0.949 µM) 82.2% | viability, T/C (second compound 1 µM, first compound 3 µM) 83.1%
> 3 µM: IC50 (second compound 0.00316 µM) | IC50 (second compound 0.01 µM) | IC50 (second compound 0.0316 µM) | IC50 (second compound 0.1 µM) | IC50 (second compound 0.316 µM) | IC50 (second compound 1 µM)
